Data: PubChem BioAssay AID330 (DTP/NCI, 2004)
Several values for one entry are separate records, joined by “and”; a condition that tells them apart may be missing. Identical values can stand only once. Toxic doses and inconclusive results are not listed.

Tested on: P388 leukemia ip, CD2F1 mice, survival T/C
Test: NCI In Vivo Anticancer Drug Screen. Data for tumor model P388 Leukemia (intraperitoneal) in CD2F1 (CDF1) mice
Details: endpoint: median survival time, higher = longer survival
Procedure, shortened: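 Mice carrying the transplanted tumor received test compound or vehicle. Survival was recorded in each group, and the value is the treated-group measurement divided by that of the vehicle-treated control group.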

[1] = dose: 50.0 mg/kg/injection, schedule: Q01DX005 (ip), vehicle: saline with Tween-80
[2] = dose: 100.0 mg/kg/injection, schedule: Q01DX005 (ip), vehicle: saline with Tween-80
[3] = dose: 200.0 mg/kg/injection, schedule: Q01DX005 (ip), vehicle: saline with Tween-80
[4] = dose: 50.0 mg/kg/injection, schedule: Q01DX009 (ip), vehicle: saline with Tween-80
[5] = dose: 200.0 mg/kg/injection, schedule: Q01DX009 (ip), vehicle: saline with Tween-80
[6] = dose: 100.0 mg/kg/injection, schedule: Q04DX003 (ip), vehicle: saline
[7] = dose: 200.0 mg/kg/injection, schedule: Q04DX003 (ip), vehicle: saline
[8] = dose: 400.0 mg/kg/injection, schedule: Q04DX003 (ip), vehicle: saline

COc1ccc(C(OC(C)(C)C)c2cc(C(C)(C)C)cc(C(C)(C)C)c2O)cc1 (configuration not stated)
T/C (dose: 50.0 mg/kg/injection, schedule: Q01DX005 (ip), vehicle: distilled water + alcohol): 101 % of control | T/C (dose: 100.0 mg/kg/injection, schedule: Q01DX005 (ip), vehicle: distilled water + alcohol): 104 % of control | T/C (dose: 200.0 mg/kg/injection, schedule: Q01DX005 (ip), vehicle: distilled water + alcohol): 97 % of control

O=C1CC2C(=O)N(Cc3ccccc3)C(=O)C2C(=O)N1 (configuration not stated)
T/C [1]: 99 % of control | T/C [2]: 97 % of control | T/C [3]: 92 % of control

CC(=O)N(C)OS(=O)(=O)c1ccc(C)cc1
T/C (dose: 50.0 mg/kg/injection, schedule: Q01DX001 (ip), vehicle: saline with Tween-80): 102 % of control | T/C (dose: 100.0 mg/kg/injection, schedule: Q01DX001 (ip), vehicle: saline with Tween-80): 105 % of control | T/C (dose: 200.0 mg/kg/injection, schedule: Q01DX001 (ip), vehicle: saline with Tween-80): 105 % of control | T/C (dose: 400.0 mg/kg/injection, schedule: Q01DX001 (ip), vehicle: saline with Tween-80): 95 % of control

[CH3][Bi]1[O]C(=O)c2ccccc2[S]1
T/C (dose: 25.0 mg/kg/injection, schedule: Q01DX005 (ip), vehicle: Klucel (hydroxypropylcellulose) (HPC)): 99 % of control and 102 % of control and 97 % of control

C[N+](C)(Cc1ccccc1)[N-]C(=N)c1ccccc1
T/C (dose: 12.5 mg/kg/injection, schedule: Q04DX003 (ip), vehicle: Klucel (hydroxypropylcellulose) (HPC)): 105 % of control | T/C (dose: 25.0 mg/kg/injection, schedule: Q04DX003 (ip), vehicle: Klucel (hydroxypropylcellulose) (HPC)): 101 % of control | T/C (dose: 50.0 mg/kg/injection, schedule: Q04DX003 (ip), vehicle: Klucel (hydroxypropylcellulose) (HPC)): 100 % of control | T/C (dose: 100.0 mg/kg/injection, schedule: Q04DX003 (ip), vehicle: Klucel (hydroxypropylcellulose) (HPC)): 103 % of control

COC1(OC)C(c2cccs2)C(C#N)(C#N)C1(OC)OC (configuration not stated)
T/C (dose: 60.0 mg/kg/injection, schedule: Q01DX005 (ip), vehicle: Klucel (hydroxypropylcellulose) (HPC)): 100 % of control | T/C (dose: 120.0 mg/kg/injection, schedule: Q01DX005 (ip), vehicle: Klucel (hydroxypropylcellulose) (HPC)): 105 % of control | T/C (dose: 240.0 mg/kg/injection, schedule: Q01DX005 (ip), vehicle: Klucel (hydroxypropylcellulose) (HPC)): 100 % of control

CN(/N=C/c1ccc(N(C)C)cc1)C(=O)c1ccccc1N
T/C [4]: 100 % of control | T/C (dose: 100.0 mg/kg/injection, schedule: Q01DX009 (ip), vehicle: saline with Tween-80): 93 % of control | T/C [5]: 94 % of control

CN1N=Nc2ccccc2NC1=O
T/C [1]: 96 % of control | T/C [2]: 99 % of control | T/C [3]: 91 % of control

[NH-]CC[N-]CCO.[NH-]CC[N-]CCO.[NH-]CC[N-]CCO.[Ni]
T/C (dose: 6.25 mg/kg/injection, schedule: Q01DX005 (ip), vehicle: saline): 93 % of control | T/C (dose: 12.5 mg/kg/injection, schedule: Q01DX005 (ip), vehicle: saline): 98 % of control | T/C (dose: 25.0 mg/kg/injection, schedule: Q01DX005 (ip), vehicle: saline): 107 % of control

O=C1c2ccccc2C(=O)c2cc3c(cc21)C1OC3C2=C1CC1C(=O)OC(=O)C1C2 (configuration not stated)
T/C [1]: 111 % of control | T/C [2]: 93 % of control | T/C [3]: 94 % of control

Clc1ccc2nc3c(c(N4CCCCC4)c2c1)CCCC3
T/C [1]: 105 % of control | T/C [2]: 105 % of control | T/C [3]: 100 % of control

C=C1C(=O)OC2CC1CCC1(C)OC1CCC(C)=CCCC2(C)O (configuration not stated)
T/C (dose: 7.5 mg/kg/injection, schedule: Q01DX009 (ip), vehicle: Klucel (hydroxypropylcellulose) (HPC)): 100 % of control and 101 % of control | T/C (dose: 15.0 mg/kg/injection, schedule: Q01DX009 (ip), vehicle: Klucel (hydroxypropylcellulose) (HPC)): 107 % of control and 119 % of control | T/C (dose: 30.0 mg/kg/injection, schedule: Q01DX009 (ip), vehicle: Klucel (hydroxypropylcellulose) (HPC)): 107 % of control and 108 % of control | T/C (dose: 60.0 mg/kg/injection, schedule: Q01DX009 (ip), vehicle: Klucel (hydroxypropylcellulose) (HPC)): 108 % of control

COc1cc2c(cc1O)C(=O)c1[nH]c3ccccc3c1CC2
T/C [6]: 107 % of control | T/C [7]: 107 % of control | T/C [8]: 101 % of control

CC1(C)OC2C(CCP(=O)(O)O)OC(c3nc(C(N)=O)cs3)C2O1 (configuration not stated)
T/C (dose: 100.0 mg/kg/injection, schedule: Q04DX003 (ip), vehicle: suspension in saline): 99 % of control | T/C (dose: 200.0 mg/kg/injection, schedule: Q04DX003 (ip), vehicle: suspension in saline): 100 % of control | T/C (dose: 400.0 mg/kg/injection, schedule: Q04DX003 (ip), vehicle: suspension in saline): 119 % of control

O=C1SC/C(=N\N=c2/scc(-c3ccc(Br)cc3)n2-c2ccccc2)N1Cc1ccccc1
T/C (dose: 100.0 mg/kg/injection, schedule: Q04DX002 (ip), vehicle: Klucel (hydroxypropylcellulose) (HPC)): 92 % of control | T/C (dose: 200.0 mg/kg/injection, schedule: Q04DX002 (ip), vehicle: Klucel (hydroxypropylcellulose) (HPC)): 91 % of control | T/C (dose: 400.0 mg/kg/injection, schedule: Q04DX002 (ip), vehicle: Klucel (hydroxypropylcellulose) (HPC)): 89 % of control

COc1cc([C@H]2OC[C@H]3[C@@H]2CO[C@@H]3c2cc(OC)c3c(c2)OCO3)cc(OC)c1OC
T/C (dose: 9.75 mg/kg/injection, schedule: Q01DX009 (ip), vehicle: saline + Tween-80 + alcohol): 93 % of control | T/C (dose: 19.5 mg/kg/injection, schedule: Q01DX009 (ip), vehicle: saline + Tween-80 + alcohol): 106 % of control | T/C (dose: 39.0 mg/kg/injection, schedule: Q01DX009 (ip), vehicle: saline + Tween-80 + alcohol): 99 % of control | T/C (dose: 78.0 mg/kg/injection, schedule: Q01DX009 (ip), vehicle: saline + Tween-80 + alcohol): 107 % of control

Cc1ccc(Cl)cc1N=Cc1ccccc1O
T/C (dose: 100.0 mg/kg/injection, schedule: Q04DX003 (ip), vehicle: saline with Tween-80): 100 % of control | T/C (dose: 200.0 mg/kg/injection, schedule: Q04DX003 (ip), vehicle: saline with Tween-80): 95 % of control | T/C (dose: 400.0 mg/kg/injection, schedule: Q04DX003 (ip), vehicle: saline with Tween-80): 100 % of control

CC(C)CC1CCCC12NC(=O)NC2=O (configuration not stated)
T/C (dose: 50.0 mg/kg/injection, schedule: Q01DX005 (ip), vehicle: Klucel (hydroxypropylcellulose) (HPC)): 97 % of control | T/C (dose: 100.0 mg/kg/injection, schedule: Q01DX005 (ip), vehicle: Klucel (hydroxypropylcellulose) (HPC)): 89 % of control | T/C (dose: 200.0 mg/kg/injection, schedule: Q01DX005 (ip), vehicle: Klucel (hydroxypropylcellulose) (HPC)): 93 % of control

Clc1cnc2n[se]nc2c1
T/C (dose: 25.0 mg/kg/injection, schedule: Q04DX002 (ip), vehicle: saline): 106 % of control | T/C (dose: 50.0 mg/kg/injection, schedule: Q04DX002 (ip), vehicle: saline): 116 % of control | T/C (dose: 100.0 mg/kg/injection, schedule: Q04DX002 (ip), vehicle: saline): 105 % of control and 114 % of control

COC1=CCC=C(C(C)(C)C)C1
T/C (dose: 60.0 mg/kg/injection, schedule: Q01DX005 (ip), vehicle: saline with Tween-80): 98 % of control | T/C (dose: 120.0 mg/kg/injection, schedule: Q01DX005 (ip), vehicle: saline with Tween-80): 94 % of control | T/C (dose: 240.0 mg/kg/injection, schedule: Q01DX005 (ip), vehicle: saline with Tween-80): 103 % of control

Cn1c(=O)c2c(nc(/N=C/c3ccco3)n2C)n(C)c1=O
T/C [6]: 91 % of control | T/C [7]: 90 % of control | T/C [8]: 92 % of control

O=C(NC1CCCCC1)OCc1c(COC(=O)NC2CCCCC2)c(-c2ccc(Cl)c(Cl)c2)n2c1CCC2
T/C (dose: 6.25 mg/kg/injection, schedule: Q01DX009 (ip), vehicle: Klucel (hydroxypropylcellulose) (HPC)): 94 % of control | T/C (dose: 12.5 mg/kg/injection, schedule: Q01DX009 (ip), vehicle: Klucel (hydroxypropylcellulose) (HPC)): 119 % of control | T/C (dose: 25.0 mg/kg/injection, schedule: Q01DX009 (ip), vehicle: saline with Tween-80): 150 % of control and 168 % of control | T/C (dose: 50.0 mg/kg/injection, schedule: Q01DX009 (ip), vehicle: Klucel (hydroxypropylcellulose) (HPC)): 161 % of control | T/C [4]: 166 % of control and 170 % of control and 174 % of control | T/C (dose: 100.0 mg/kg/injection, schedule: Q01DX009 (ip), vehicle: Klucel (hydroxypropylcellulose) (HPC)): 189 % of control | T/C [5]: 91 % of control

CN(c1ccccc1)c1cc2nc3ccccc3nc2cc1O
T/C (dose: 50.0 mg/kg/injection, schedule: Q01DX009 (ip), vehicle: saline): 98 % of control | T/C (dose: 100.0 mg/kg/injection, schedule: Q01DX009 (ip), vehicle: saline): 91 % of control

ClCCN(CCCl)c1ccc(CN2CCCCCC2)cc1
T/C (dose: 6.25 mg/kg/injection, schedule: Q01DX009 (ip), vehicle: saline): 111 % of control | T/C (dose: 12.5 mg/kg/injection, schedule: Q01DX009 (ip), vehicle: saline): 114 % of control | T/C (dose: 25.0 mg/kg/injection, schedule: Q01DX009 (ip), vehicle: saline): 116 % of control
